Key:
[1] = tested on: axillary buds of tobacco Michinoku 1 (burley cultivar); assay: Axillary bud growth inhibition, pot test in glasshouse, spraying after top pruning (burley cultivar); format: in vivo, Nicotiana tabacum; settings: 28 days after spraying
Protocol: (§1) Tobacco seedlings of Tsukuba 1 (flue-cured cultivar) and Michinoku 1 (burley cultivar) were transplanted to 1/5000a Wagner pots filled with Kureha garden nursery soil. The plants were grown in a glasshouse, and the floral axis parts were removed at the time of single-flower bloom of tobacco (top pruning).
(§2) The formulations of the inhibitors for tobacco axillary bud growth obtained in Formulation Examples 1 to 4 above were each diluted with water to predetermined concentrations, and 20 ml of the water-diluted solutions of the respective inhibitors were separately sprayed using a contact-type axillary bud inhibitor spraying instrument equipped with a spot exhaust nozzle (Examples 1 to 4 and 5 to 8). In addition, butralin (trade name: Blue Ribbon) (Comparative Examples 1 to 2 and 5 to 6) and decyl alcohol (trade name: Contact) (Comparative Examples 3 to 4 and 7 to 8) were used for tests as comparative examples in the same manner as above. In the cases of both the flue-cured cultivar and burley cultivar, one plant was planted per pot, and the tests were carried out in duplicate.
(§3) For the respective cases, states of inhibition of axillary bud growth 28 days after the spraying were investigated together with untreated groups sprayed with no inhibitor, and axillary bud growth inhibition ratios were calculated by the following equation. Axillary bud growth inhibition ratio=(fresh weight of axillary buds per plant of untreated group−fresh weight of axillary buds per plant of treated group)÷(fresh weight of axillary buds per plant of untreated group)×100 [Math. 1]
(§4) Formulation of Formulation Example 1 or Formulation Example 3 was diluted with water to predetermined concentrations and mixed with decyl alcohol (manufactured by Wako Pure Chemical Industries, Ltd.), 2-ethylhexanol (manufactured by Wako Pure Chemical Industries, Ltd.) or geraniol (manufactured by Wako Pure Chemical Industries, Ltd.) at predetermined concentrations, and the resultant was adjusted and used for tests (Examples 9 to 14 and 15 to 20). In addition, as comparative examples, the formulation of Formulation Example 1 or Formulation Example 3 diluted with water to predetermined concentrations (Comparative Examples 9 to 10 and 14 to 15) and decyl alcohol, 2-ethylhexanol or geraniol diluted with water to a predetermined concentration were used for tests (Comparative Examples 11 to 13 and 16 to 18).
(§5) The respective inhibitors were sprayed in the same manner as in Test Example 1, and states of inhibition of axillary bud growth 28 days after the spraying were investigated together with untreated groups sprayed with no inhibitor. Then, axillary bud growth inhibition ratios were calculated.

[2] = tested on: axillary buds of tobacco Tsukuba 1 (flue-cured cultivar); assay: Axillary bud growth inhibition, pot test in glasshouse, spraying after top pruning (flue-cured cultivar); format: in vivo, Nicotiana tabacum; settings: 28 days after spraying
Protocol: as §1, §2, §3, §4, §5

[3] = tested on: leaves (first to fourth from the top) of tobacco Michinoku 1 (burley cultivar); assay: Harmful effect of inhibitor on leaves (burley cultivar); set-up: species or system Nicotiana tabacum; settings: in vivo
Protocol: as §1, §2
Further, the presence or absence of the harmful effect of each inhibitor was evaluated in one of the following four categories depending on the degrees of growth inhibition, gangrene, change in color, deformation and the like of leaves (first to fourth leaves from the top). […]

[4] = active ingredient 0.03%, 20 ml sprayed
[5] = active ingredient 0.35%, 20 ml sprayed
[6] = active ingredient 2.6%, 20 ml sprayed

Row | SMILES | Axillary bud growth inhibition ratio (%) ([1]; active ingredient 0.5%) | Axillary bud growth inhibition ratio (%) ([2]; active ingredient 0.5%) | Axillary bud growth inhibition ratio (%) [1, 4] | Harmful effect of inhibitor [3] | Axillary bud growth inhibition ratio (%) [2, 4] | Axillary bud growth inhibition ratio (%) ([1]; active ingredient 0.005%) | Axillary bud growth inhibition ratio (%) ([2]; active ingredient 0.005%) | further results
1 | CCCCC(CC)CO (centres unmarked) [2-ethylhexanol] | 28% | 21% | – | – | – | – | – | –
2 | CCC(C)Nc1c([N+](=O)[O-])cc(C(C)(C)C)cc1[N+](=O)[O-] (centres unmarked) [Butralin, butralin] | – | – | 48% | Absent | 44% | – | – | Axillary bud growth inhibition ratio (%) [1, 5]: 97%; Axillary bud growth inhibition ratio (%) [2, 5]: 98%
3 | CCCCCCCCCCO [Decyl Alcohol, decyl alcohol] | 37% | 30% | 0% | Absent | 0% | – | – | Axillary bud growth inhibition ratio (%) [1, 6]: 94%; Axillary bud growth inhibition ratio (%) [2, 6]: 91%
4 | CSC(=O)c1c(C(F)F)nc(C(F)(F)F)c(C(=O)SC)c1CC(C)C [Dithiopyr, dithiopyr] | – | – | – | – | – | 78% | 75% | –
5 | CC(C)=CCC/C(C)=C/CO [Geraniol, geraniol] | 32% | 26% | – | – | – | – | – | –
6 | C#CC(C)(C)NC(=O)c1cc(Cl)cc(Cl)c1 [Propyzamide, propyzamide] | – | – | – | – | – | 72% | 70% | –
